Assay results from ChEMBL document CHEMBL1201862, “PubChem BioAssay data set” (2004).
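Briefly, cells in 96-well plates were exposed to five compound concentrations for 48 h, and endpoints were estimated by linear interpolation. Abbreviation: GI50, concentration required for 50% inhibition of growth.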 Calls of active or inactive are those of the source. Cut-off read from the data, not from the text of the source: active = GI50 up to about 1.1 µM and inactive = higher.

How the values were obtained:
Test in all cases: NCI-60 cell line screen, 48 h
RPMI-8226 = tested on: RPMI-8226
UACC-62 = tested on: UACC-62
HL-60 = tested on: HL-60
OVCAR-4 = tested on: OVCAR-4
M14 = tested on: M14
SR = tested on: SR
MOLT-4 = tested on: MOLT-4
HOP-62 = tested on: HOP-62
SN12C = tested on: SN12C
NCI-H460 = tested on: NCI-H460
DLD-1 = tested on: DLD-1
SK-MEL-28 = tested on: SK-MEL-28
K562 = tested on: K562
OVCAR-8 = tested on: OVCAR-8
SF-539 = tested on: SF-539
ACHN = tested on: ACHN
NCI-H226 = tested on: NCI-H226
OVCAR-5 = tested on: OVCAR-5
SK-MEL-2 = tested on: SK-MEL-2

Compound | GI50 (RPMI-8226) | GI50 (UACC-62) | GI50 (HL-60) | GI50 (OVCAR-4) | GI50 (M14) | GI50 (SR) | GI50 (MOLT-4) | GI50 (HOP-62) | GI50 (SN12C) | GI50 (NCI-H460) | GI50 (DLD-1) | GI50 (SK-MEL-28) | GI50 (K562) | GI50 (OVCAR-8) | GI50 (SF-539) | GI50 (ACHN) | GI50 (NCI-H226) | GI50 (OVCAR-5) | GI50 (SK-MEL-2)
CP(=O)(CCSc1ccccc1)c1ccccc1 (configuration not stated) | > 100 µM (inactive) | > 100 µM (inactive) | 35.6 µM (inactive) | > 100 µM (inactive) | > 100 µM (inactive) | > 100 µM (inactive) | > 100 µM (inactive) | > 100 µM (inactive) | > 100 µM (inactive) | > 100 µM (inactive) | > 100 µM (inactive) | > 100 µM (inactive) | > 100 µM (inactive) | > 100 µM (inactive) | > 100 µM (inactive) | > 100 µM (inactive) | > 100 µM (inactive) | – | –
O=C(CSc1nnc(Cc2ccccc2)o1)Nc1ccc([N+](=O)[O-])cc1 | > 100 µM (inactive) | > 100 µM (inactive) | 14.1 µM (inactive) | > 100 µM (inactive) | > 100 µM (inactive) | – | 87.3 µM (inactive) | > 100 µM (inactive) | > 100 µM (inactive) | > 100 µM (inactive) | > 100 µM (inactive) | > 100 µM (inactive) | 40.2 µM (inactive) | > 100 µM (inactive) | > 100 µM (inactive) | > 100 µM (inactive) | > 100 µM (inactive) | > 100 µM (inactive) | > 100 µM (inactive)
N=C(N)N/N=C(/c1nc2ccc([N+](=O)[O-])cc2[nH]c1=O)C(O)c1ccc([N+](=O)[O-])cc1 (configuration not stated) | > 100 µM (inactive) | 15.7 µM (inactive) | > 100 µM (inactive) | > 100 µM (inactive) | 79.3 µM (inactive) | > 100 µM (inactive) | > 100 µM (inactive) | 37.8 µM (inactive) | > 100 µM (inactive) | 51.3 µM (inactive) | 87.3 µM (inactive) | 78.5 µM (inactive) | > 100 µM (inactive) | > 100 µM (inactive) | 31.3 µM (inactive) | 21.3 µM (inactive) | > 100 µM (inactive) | > 100 µM (inactive) | –
CSC(C1c2ccccc2N(C)c2[nH]c(=O)n(C)c(=O)c21)S(=O)(=O)c1ccc(C)cc1 (configuration not stated) | > 10 µM (inactive) | > 100 µM (inactive) | 50.2 µM (inactive) | > 100 µM (inactive) | – | – | 40 µM (inactive) | > 100 µM (inactive) | > 100 µM (inactive) | – | > 100 µM (inactive) | > 100 µM (inactive) | 43.6 µM (inactive) | > 100 µM (inactive) | 42.7 µM (inactive) | – | > 100 µM (inactive) | > 100 µM (inactive) | > 100 µM (inactive)
CC(=O)OC1[C@H]2c3cc4c(cc3CN3CCC(C[C@@H]1OC(C)=O)C23)OCO4 (some centres not stated) | > 75 µM (inactive) | > 75 µM (inactive) | > 75 µM (inactive) | – | > 75 µM (inactive) | > 75 µM (inactive) | > 75 µM (inactive) | > 75 µM (inactive) | > 75 µM (inactive) | > 75 µM (inactive) | > 75 µM (inactive) | > 75 µM (inactive) | > 75 µM (inactive) | > 75 µM (inactive) | > 75 µM (inactive) | > 75 µM (inactive) | 8.13 µM (inactive) | – | –
COc1ccc(NCC#N)cc1 | > 100 µM (inactive) | 83.4 µM (inactive) | 52.8 µM (inactive) | – | > 100 µM (inactive) | > 100 µM (inactive) | > 100 µM (inactive) | – | > 100 µM (inactive) | > 100 µM (inactive) | > 100 µM (inactive) | > 100 µM (inactive) | > 100 µM (inactive) | > 100 µM (inactive) | > 100 µM (inactive) | > 100 µM (inactive) | – | > 100 µM (inactive) | > 100 µM (inactive)
Cn1cc2c(n1)c(N/N=C/c1ccccc1)nn1nnnc21 | > 100 µM (inactive) | > 100 µM (inactive) | > 100 µM (inactive) | > 100 µM (inactive) | > 100 µM (inactive) | > 100 µM (inactive) | > 100 µM (inactive) | > 100 µM (inactive) | > 100 µM (inactive) | > 100 µM (inactive) | > 100 µM (inactive) | > 100 µM (inactive) | > 100 µM (inactive) | > 100 µM (inactive) | > 100 µM (inactive) | > 100 µM (inactive) | > 100 µM (inactive) | – | –
CC1(C)OC(=O)C(C#N)=C1/C=C/c1coc2ccc(Cl)cc2c1=O | 26.9 µM (inactive) | 31.7 µM (inactive) | – | 24.6 µM (inactive) | 35.6 µM (inactive) | 31.5 µM (inactive) | 26.1 µM (inactive) | 23.7 µM (inactive) | 30.1 µM (inactive) | 18.8 µM (inactive) | 23.1 µM (inactive) | 47.5 µM (inactive) | 27.5 µM (inactive) | 25.7 µM (inactive) | > 10 µM (inactive) | – | 29.4 µM (inactive) | 45.1 µM (inactive) | 22.1 µM (inactive)
COc1cccc(NC(=O)CC(=O)N2NC(c3ccccc3)C(/N=N/c3cccc(C(=O)O)c3)C2=O)c1 (configuration not stated) | 70 µM (inactive) | 30.5 µM (inactive) | – | > 100 µM (inactive) | > 100 µM (inactive) | 55.2 µM (inactive) | 86.3 µM (inactive) | > 100 µM (inactive) | > 100 µM (inactive) | > 100 µM (inactive) | > 100 µM (inactive) | > 100 µM (inactive) | – | > 100 µM (inactive) | > 100 µM (inactive) | > 100 µM (inactive) | > 100 µM (inactive) | > 100 µM (inactive) | –
COc1cc([C@@H]2c3cc4c(cc3[C@@H](NC(=O)c3ccc(C#N)cc3)C3COC(=O)[C@@H]32)OCO4)cc(OC)c1O (some centres not stated) | 2.84 µM (inactive) | 0.316 µM (active) | 0.138 µM (active) | 8.93 µM (inactive) | 0.721 µM (active) | – | 3.63 µM (inactive) | 0.113 µM (active) | 0.207 µM (active) | < 0.01 µM (active) | 1.64 µM (inactive) | 2.43 µM (inactive) | 1.63 µM (inactive) | 0.719 µM (active) | 0.249 µM (active) | 0.0914 µM (active) | 0.0176 µM (active) | 0.794 µM (active) | 2.29 µM (inactive)
COC(=O)NN=C1C(C)(C)C(=O)C1(C)C | > 100 µM (inactive) | > 100 µM (inactive) | > 100 µM (inactive) | – | > 100 µM (inactive) | – | > 100 µM (inactive) | > 100 µM (inactive) | – | > 100 µM (inactive) | > 100 µM (inactive) | > 100 µM (inactive) | > 100 µM (inactive) | > 100 µM (inactive) | > 100 µM (inactive) | > 100 µM (inactive) | > 100 µM (inactive) | > 100 µM (inactive) | > 100 µM (inactive)
O=C(Nc1ccc(Cl)c(C(F)(F)F)c1)C(=O)C(C(=O)/C=C/c1ccccc1)C1OC(=O)c2ccccc21 (configuration not stated) | 72.8 µM (inactive) | 71.1 µM (inactive) | > 100 µM (inactive) | > 100 µM (inactive) | > 100 µM (inactive) | > 100 µM (inactive) | > 100 µM (inactive) | > 100 µM (inactive) | > 100 µM (inactive) | > 100 µM (inactive) | > 100 µM (inactive) | – | > 100 µM (inactive) | > 100 µM (inactive) | – | > 100 µM (inactive) | > 100 µM (inactive) | > 100 µM (inactive) | –
c1ccc(N2CCN(CCN3CCc4c([nH]c5ccccc45)C3c3cccnc3)CC2)cc1 (configuration not stated) | > 100 µM (inactive) | > 100 µM (inactive) | > 100 µM (inactive) | > 100 µM (inactive) | > 100 µM (inactive) | > 100 µM (inactive) | > 100 µM (inactive) | 89.1 µM (inactive) | > 100 µM (inactive) | > 100 µM (inactive) | > 100 µM (inactive) | > 100 µM (inactive) | 7.14 µM (inactive) | 88.1 µM (inactive) | 20.5 µM (inactive) | > 100 µM (inactive) | – | > 100 µM (inactive) | –
Fc1cccc(F)c1C1SCc2nc3ccccc3n21 (configuration not stated) [THIAZOLOBENZIMIDAZOLE] | 35.2 µM (inactive) | 47 µM (inactive) | 25.4 µM (inactive) | > 100 µM (inactive) | > 100 µM (inactive) | – | 35.3 µM (inactive) | > 100 µM (inactive) | > 100 µM (inactive) | 47.3 µM (inactive) | > 100 µM (inactive) | – | 36.5 µM (inactive) | 77.8 µM (inactive) | > 100 µM (inactive) | > 100 µM (inactive) | 97.5 µM (inactive) | 85.9 µM (inactive) | > 100 µM (inactive)
O=C(/C=N/c1ccccc1C(=O)[O-])c1cccs1.O=C(/C=N/c1ccccc1C(=O)[O-])c1cccs1.[Zn+2] | – | 20.8 µM (inactive) | 43.3 µM (inactive) | – | 36.4 µM (inactive) | 46.3 µM (inactive) | 34 µM (inactive) | > 100 µM (inactive) | > 10 µM (inactive) | 71.8 µM (inactive) | 39.9 µM (inactive) | 39.5 µM (inactive) | 29.2 µM (inactive) | 36.1 µM (inactive) | 42.5 µM (inactive) | > 100 µM (inactive) | – | 24.7 µM (inactive) | 25.8 µM (inactive)
C/C(=N/NC(N)=S)C(CN1CCOCC1)C(C1=C(O)c2ccccc2OC1)c1ccccc1 (configuration not stated) | 90.2 µM (inactive) | > 100 µM (inactive) | 21 µM (inactive) | > 100 µM (inactive) | > 100 µM (inactive) | 25.4 µM (inactive) | 39 µM (inactive) | – | > 100 µM (inactive) | > 100 µM (inactive) | > 100 µM (inactive) | – | 93.1 µM (inactive) | > 100 µM (inactive) | > 100 µM (inactive) | > 100 µM (inactive) | > 100 µM (inactive) | > 100 µM (inactive) | > 100 µM (inactive)
